In PubChem BioAssay (NCI):
Where “and” joins values, the source holds several entries; their conditions need not be identical. Equal entries are not always repeated.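 How tested: cells in 96-well plates exposed to compound for 48 hours at five concentrations. GI50 marks 50% less growth. TGI: total growth inhibition.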

Legend:
Experiment in all cases: NCI tumour cell line growth inhibition, 48 h
[1] = test system: K-562 leukemia
[2] = test system: SF-268 CNS
[3] = test system: MCF7 breast
[4] = test system: UACC-257 melanoma
[5] = test system: RPMI-8226 leukemia
[6] = test system: KM12 colon
[7] = test system: SK-MEL-2 melanoma
[8] = test system: OVCAR-5 ovarian
[9] = test system: NCI-H226 lung
[10] = test system: SN12C renal

Structure (SMILES)	GI50 [1] [µM]	TGI [1] [µM]	GI50 [2] [µM]	TGI [2]	GI50 [3] [µM]	TGI [3] [µM]	GI50 [4] [µM]	TGI [4]	GI50 [5]	TGI [5]	GI50 [6] [µM]	TGI [6]	GI50 [7] [µM]	GI50 [8] [µM]	TGI [8] [µM]	GI50 [9] [µM]	TGI [9]	GI50 [10] [µM]	TGI [10]	TGI [7]
CCOC(=O)c1c(C)n([O-])c2cc(F)c(F)cc2[n+]1=O	0.697	> 20.4	1.57	3.69 µM	4.32	> 37.4	1.7	3.69 µM	6.18 µM	28.2 µM	15.4	35.6 µM	2.8	1.78	3.2	1.94	3.94 µM	1.01	2.18 µM	
CCOC(=O)c1c(-c2ccccc2)n2c(=O)cc(C)c3c(O)c(O)cc1c32	6.93	22.7	3.35	20.2 µM	3.28	13.4	6.38	28.7 µM	3.98 µM	17.9 µM	6.74	38.7 µM	4.09	22.5	46.7	11.4	42.1 µM	10.8	35.1 µM	41.3 µM
CC1(C)N=C(N)N=C(N)N1c1ccc(OCC(=O)Nc2ccc(S(=O)(=O)F)cc2Cl)c(Cl)c1	0.594	> 100	3.79	> 100 µM	2.24	> 100	> 100	> 100 µM	64.9 µM	> 100 µM	4.63	> 100 µM	> 100	> 100	> 100	57.8	> 100 µM	4.41	> 100 µM	> 100 µM
Nc1nc2ccc(CNc3ccc(C(=O)NC(CC(=O)O)C(=O)O)cc3)cc2c(=O)[nH]1 (stereo not drawn)	0.437	> 100	5	> 100 µM	1.2	> 100	> 100	> 100 µM	9.23 µM	> 100 µM	4.3	> 100 µM	> 100	> 47.2	> 100	> 65.3	> 100 µM	3.86	> 100 µM	> 100 µM
CCc1ccc(Oc2c(-c3ccc(OCCc4cccc(C(F)(F)F)c4)cc3O)n[nH]c2C(F)(F)F)cc1	1.8	6.1	5.02	11 µM	2.24	7.82	4.58	10.6 µM	1.8 µM	7.55 µM	4.2	10.8 µM	6.54	7.64	14.4	6.9	14.3 µM	2.4	8.35 µM	13.4 µM
O=S(=O)(NCCNc1nccc(-c2c(-c3ccc(F)cc3)nc3sccn23)n1)c1ccc(O)cc1	2.18	> 100	3.99	56.2 µM	0.476	14.4	5.84	34.7 µM	4.52 µM	29.3 µM	2.05	14.2 µM	4.18	11.8	> 100	6.91	21.9 µM	3.9	76.6 µM	17.3 µM
CC(=O)Oc1ccc(C2OC(c3ccc4ccccc4c3OC(C)=O)=NN2C(C)=O)c(OC(C)=O)c1 (stereo not drawn)	0.402	> 48.6	0.31	> 46 µM	0.413	> 38.6	0.331	6.59 µM	0.568 µM	> 39.5 µM	0.536	> 57.6 µM	0.602	2.22	> 100	0.515	> 38.9 µM	0.512	> 70.6 µM	> 48.7 µM
COC(=O)C1C(C(=O)O)C2(c3ccccc3)C(=O)C1(c1ccccc1)C(c1ccc(OC)cc1)=C2c1ccc(OC)cc1 (stereo not drawn)	28.4	> 100	25	82.2 µM	20.3	38.9	19.1	43.9 µM	18.2 µM	48.5 µM	27	74.6 µM	20.5	20.8	45.9	21.9	55.6 µM	20.5	49 µM	44 µM
COc1cc2c(Nc3ccc(-c4ccc(N)cc4)cc3)ncnc2c(OC)c1OC	0.521	> 100	19.1	> 100 µM	3.54	> 100	4.58	> 100 µM	3.78 µM	41.4 µM	0.615	41.6 µM	4.96	6.29	> 100	21	> 100 µM	11.2	> 100 µM	> 78.1 µM
CC(C)c1cnc(-c2cc(Cl)ccc2F)cc1Nc1ccncc1C(=O)NC(CO)CO	12.3	46.5	12.3	33 µM	11.6	27.3	16.3	33.7 µM	13.5 µM	52.6 µM	17.7	37.4 µM	18	16.2	39.6	13.6	34.8 µM	8.13	23.7 µM	38.5 µM
CCCCCCCCCCCCC(O)C1CCC(C(O)CCCCC(O)CCCCCC2CC(CC(C)=O)C(=O)O2)O1 (stereo not drawn)	1.35	7.7	1.37	4.45 µM and 17.1 µM		3.82	1.13	5.08 µM and 6.25 µM	1.28 µM and 0.367 µM	4.73 µM and 18.5 µM	7.64	4.89 µM and 20.5 µM	1.36	3.92	23.6	0.0401	4.19 µM and 12.7 µM	2.54	8.27 µM and 20.2 µM	2.88 µM and 15.8 µM
COc1cccc2nc(Nc3cccc(NC(=O)c4ccc(N5CCN(C)CC5)c(C(F)(F)F)c4)c3)ccc12	1.1	3.68	1.5	7.3 µM	0.851	1.9	1.36	3.51 µM	1.65 µM	6.44 µM	1.09	2.56 µM	1.36	1.53	4.99	2.26	8.61 µM	1.7	7.47 µM	3.65 µM
